Source: US12156860B2, “Disorders implicating PUFA oxidation” (BioJiva LLC, priority 2011, dated 2024)

Columns and labels:
[1] = Kinetics of O2 consumption during AMVN-initiated oxidation in chlorobenzene (glass capillary microvolumeter); assay type: physicochemical
Protocol: FIG. 7. Kinetics of O2 consumption accompanied the oxidation of 0.71 M LA (plots 1 and 2) and 0.71 M D2-LA (plot 3) in chlorobenzene initiated by 40 mM AMVN at 37° C. Plot 2-0.23 mM HPMC was added to 0.71 M LA.
The kinetics of oxygen consumption during the oxidation of LA and D2-LA was studied with a glass capillary microvolumeter (FIG. 7). The rate of oxidation, ROX, was measured as a slope of [O2] traces. The rate of initiation, RIN, was determined by the inhibitor method with HPMC (“6-hydroxy-2,2,5,7,8-pentamethylbenzochroman”) as a reference inhibitor. RIN was calculated from the induction period of inhibited oxidation, tIND: RIN=2·[HPMC]/tIND. […] When the process was inhibited by 0.23 mM chain-breaking antioxidant HPMC, the duration of the induction period, tIND, was about 48 min, with the RIN value of around 0.16×10^−6 M/s. […] The latter precludes a direct determination of RIN. […] An estimated kinetic isotope effect (“KIE”), from comparison of ROX for LA and D2-LA, was around 6.1×10^−6/0.18×10^−6≈35. A similar KIE was determined during the oxidation of LA and 11,11-d2-LA in Triton X-100 aqueous micelles (data not shown). For comparative purposes, the theoretical KIE is 6.9 at 25° C. See Carpenter, “Determination of Organic Reaction Mechanisms” (John Wiley & Sons, 1984), p. 89.

rat hearts = test: Langendorf isolated heart perfusion model, echo- and electrocardiography; assay type: in vivo; details: rats, 8 weeks supplementation
Protocol: Test compounds disclosed herein can also be assessed using the Langendorf isolated heart perfusion model. […] Following the treatment period, rat hearts are analyzed by echocardiography for measurement of muscle thickness of the left ventricle, left atrium, right ventricle, and right atrium and electrocardiography for measuring electrical activity. After live evaluation, rats are humanely sacrificed and their hearts isolated and connected to the Langendorf isolated perfusion system (See Jennings et al., Am. Surg. 2004; 70(9), 797-800). Left ventricular pressure is then measured with a left ventricular balloon. Coronary flow is also measured. Cardiac function is further assessed by determining the effect of administration of test compounds on the rate of contraction and relaxation of the heart. To determine whether any observed effects on cardiac function are due to the effect of the test compound on mitochondrial function, mitochondrial activity pre-ischemia and post-ischemia is assessed for each of the treatment groups.

[2] = test system: alcoholic liver disease rats; test: Alcoholic liver disease and cirrhosis induced by 5% ethanol diet; assay type: in vivo, Rattus norvegicus, Wistar; details: 5% ethanol diet rats, daily over three months
Protocol: (§1) Fifty male heterozygous rats, 45-days-old, from the Rattus norvegicus species and Wistar lineage are kept in polypropylene cages, in groups of five animals, under a 12 h-clear/dark cycle and under controlled temperature conditions. The induction of alcoholic liver disease and cirrhosis is carried out through a diet containing 5% ethanol for 6 weeks. […] During the study period, the animals are weighed on a weekly basis and the drugs dose is readjusted as necessary. On the first day of the study, besides determining the animals' weight, their blood is collected through retro-orbital plexus puncture for biochemical analysis: alanine-aminotransferase (ALT) and aspartate-aminotransferase (AST) (colorimetric test, using the Labtest kit). One day after concluding the induction period and compound administration (90 days), the animals are sacrificed by decapitation. Once more, each animal's blood is collected for biochemical analysis. Then, laparotomy with total hepatectomy and liver preparation are carried out for lipoperoxidation (LPO) and histological analysis. Liver tissue samples are analyzed using the thiobarbituric-acid reactant substance (TBARS) measurement according to known methods (See Lowry et al. Protein measurement with the folin phenol reagent. J Biol Chem. 1951; 193:265-75) and the results are expressed in nmol of malondialdehyde/mg of protein. Slides with liver fragments are also dyed with hematoxilin-eosine and picrosirius, in order to evaluate the fibrosis level, and with Perls to evaluate the presence of iron stores, having been examined by an only pathologist blinded to the animals' data.

NASH (MCD diet) rats = test: NASH induced by methionine and choline deficient diet; assay type: in vivo, Rattus norvegicus, Wistar; details: daily over three months
Protocol: as §1, with “NASH” for “alcoholic liver disease and cirrhosis”, “deficient in methionine and choline (MCD) according to known procedures (See Rogers A E, Newberne P M. Alcoholic and nutritional fatty liver and cirrhosis. Am J Pathol. 1973; 73:817-20).” for “containing 5% ethanol for 6 weeks.”, “days),” for “days), the”, “data. The minimum histological criterion for NASH diagnosis is the presence of hepatocellular ballooning-related steatosis, involving zone 3 and lobular inflammatory infiltrate. Mallory corpuscles and sinusoidal fibrosis, involving zone 3 might be present or not. The graduation of both necroinflammatory and fibrosis activity is carried out according to known classifications (See Brunt E M, Janney C G, Di Bisceglie A M, Neuschwander-Tetri B A, Bacon B R. Nonalcoholic steatohepatitis: a proposal for grading and staging the histological lesions. Am J Gastroenterol. 1999; 94:2467-74).” for “data.”

[3] = test system: stroke-prone spontaneously hypertensive (SHRSP) rat; test: SHRSP rat model of hypertension; assay type: in vivo; details: SHRSP rats, 8 weeks
From the text: The stroke-prone spontaneously hypertensive (SHRSP) rat model of hypertension, which has been previously described (McIntyre et al., 1997 Hypertension 30:1517; Alexander et al., 1999 Cardiovasc. Res. 43:798; Fennell et al., 2002 Gene Ther. 9:110), can be used for the assessment of a compound's ability to mitigate hypertension.

SMILES: [2H]C([2H])(/C=C\CCCCC)/C=C\CCCCCCCC(=O)O [D2-LA, 11,11-Dideutero-cis,cis-9,12-Octadecadienoic acid]
- rate of oxidation, ROX ([1]; 0.71 M in chlorobenzene, 40 mM AMVN, 37° C.): 1.8e-07 M/s
- kinetic isotope effect (KIE) from comparison of ROX for LA and D2-LA ([1]; chlorobenzene, 37° C.): ≈ 35
- length of the kinetic chain, ROX/RIN ([1]; for D2-LA assuming RIN comparable to that of LA): ≈ 1.1
- symptoms and markers associated with cardiac disorders (rat hearts): reduce symptoms and markers associated with cardiac disorders
- amount of MDA in liver samples (TBARS) [2]: reduce the amount of MDA found in liver samples
- histological signs of fatty liver disease [2]: reverse the histological signs of fatty liver disease
- amount of MDA in liver samples (TBARS) (NASH (MCD diet) rats): reduce the amount of MDA found in liver samples
- histological signs of NASH (NASH (MCD diet) rats): reverse the histological signs of NASH
- systolic blood pressure [3]: reduction in systolic blood pressure
